Legend:
Format in all cases: in vivo
[1] = test system: Chilo suppressalis; assay: Example B4: Chilo suppressalis (Striped Rice Stemborer); conditions: 144 h, application rate of 200 ppm, artificial diet, L2 larvae, 6 days after infestation, read-out: control in at least one of the three categories (mortality, anti-feedant or growth inhibition)
In short: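 Artificial diet was treated with aqueous dilutions made from 10'000 ppm DMSO stocks, dried, then infested with L2 larvae at 6–8 per well. Mortality, antifeedant effect and growth inhibition were assessed against untreated samples 6 days after infestation.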

[2] = test system: Myzus persicae; assay: Example B11: Myzus persicae (Green Peach Aphid), 96-well sucrose solution; conditions: 120 h, application rate of 50 ppm, 96-well sucrose solution under Parafilm, 5 days after infestation
Description: Example B11: Myzus persicae (Green Peach Aphid)
Test compounds prepared from 10′000 ppm DMSO stock solutions were applied by a liquid handling robot into 96-well microtiter plates and mixed with a sucrose solution. Parafilm was stretched over the 96-well microtiter plate and a plastic stencil with 96 holes was placed onto the plate. Aphids were sieved into the wells directly onto the Parafilm. The infested plates were closed with a gel blotting card and a second plastic stencil and then turned upside down. The samples were assessed for mortality 5 days after infestation.

[3] = test system: Spodoptera littoralis; assay: Example B9: Spodoptera littoralis (Egyptian Cotton Leaf Worm), cotton leaf disc spray; conditions: foliar, 72 h, application rate of 200 ppm, sprayed cotton leaf discs, L1 larvae, 3 days after infestation, read-out: control in at least one of the three categories (mortality, anti-feedant or growth inhibition)
[4] = test system: Plutella xylostella; assay: Example B5: Plutella xylostella (Diamond Back Moth); conditions: 192 h, application rate of 200 ppm, 24-well artificial diet, eggs, 8 days after infestation, read-out: control in at least one of the two categories (mortality or growth inhibition)
Experimental: Example B5: Plutella xylostella (Diamond Back Moth)
24-well microtiter plates with artificial diet were treated with aqueous test solutions prepared from 10′000 ppm DMSO stock solutions by pipetting. After drying, Plutella eggs were pipetted through a plastic stencil onto a gel blotting paper and the plate was closed with it. The samples were assessed for mortality and growth inhibition in comparison to untreated samples 8 days after infestation.

[5] = test system: Myzus persicae; assay: Example B8: Myzus persicae (Green Peach Aphid): Intrinsic Activity; conditions: 120 h, test rate of 12 ppm, 24-well sucrose solution under Parafilm, 5 days after infestation
Description: Example B8: Myzus persicae (Green Peach Aphid): Intrinsic Activity
Test compounds prepared from 10′000 ppm DMSO stock solutions were applied by pipette into 24-well microtiter plates and mixed with sucrose solution. The plates were closed with a stretched Parafilm. A plastic stencil with 24 holes was placed onto the plate and infested pea seedlings were placed directly on the Parafilm. The infested plate was closed with a gel blotting paper and another plastic stencil and then turned upside down. The samples were assessed for mortality 5 days after infestation.

[6] = test system: Diabrotica balteata; assay: Example B1: Diabrotica balteata (Corn Root Worm); conditions: 96 h, application rate of 200 ppm, sprayed maize sprouts, L2 larvae, 4 days after infestation, read-out: control in at least one of the two categories (mortality or growth inhibition)
Experimental: Example B1: Diabrotica balteata (Corn Root Worm)
Maize sprouts placed onto an agar layer in 24-well microtiter plates were treated with aqueous test solutions prepared from 10′000 ppm DMSO stock solutions by spraying. After drying, the plates were infested with L2 larvae (6 to 10 per well). The samples were assessed for mortality and growth inhibition in comparison to untreated samples 4 days after infestation.

[7] = test system: Plutella xylostella; assay: Example B12: Plutella xylostella (Diamondback Moth), 96-well artificial diet; conditions: 216 h, application rate of 500 ppm, eggs, 9 days after infestation
Experimental: Example B12: Plutella xylostella (Diamondback Moth)
96-well microtiter plates containing artificial diet were treated with aqueous test solutions, prepared from 10′000 ppm DMSO stock solutions, by a liquid handling robot. After drying, eggs (˜30 per well) were infested onto a netted lid which was suspended above the diet. The eggs hatch and L1 larvae move down to the diet. The samples were assessed for mortality 9 days after infestation.

[8] = test system: Euschistus heros; assay: Example B2: Euschistus heros (Neotropical Brown Stink Bug); conditions: 120 h, application rate of 200 ppm, sprayed soybean leaves, N2 nymphs, 5 days after infestation, read-out: control in at least one of the two categories (mortality or growth inhibition)
Experimental: Example B2: Euschistus heros (Neotropical Brown Stink Bug)
Soybean leaves on agar in 24-well microtiter plates were sprayed with aqueous test solutions prepared from 10′000 ppm DMSO stock solutions. After drying the leaves were infested with N2 nymphs. The samples were assessed for mortality and growth inhibition in comparison to untreated samples 5 days after infestation.

[9] = test system: Myzus persicae; assay: Example B7: Myzus persicae (Green Peach Aphid): Systemic Activity; conditions: 144 h, test rate of 24 ppm, roots of pea seedlings in test solution, 6 days
Experimental: Example B7: Myzus persicae (Green Peach Aphid): Systemic Activity
Roots of pea seedlings infested with an aphid population of mixed ages were placed directly into aqueous test solutions prepared from 10′000 DMSO stock solutions. The samples were assessed for mortality 6 days after placing seedlings into test solutions.

CC(NC(=O)c1cc(C(F)(F)F)cc(S(=O)(=O)C(F)(F)F)c1)c1nccnc1-c1ncccn1 (centres unmarked) [P19, N-[1-(3-pyrimidin-2-ylpyrazin-2-yl)ethyl]-3-(trifluoromethyl)-5-(trifluoromethylsulfonyl) benzamide]
≥ 80%: percent control (mortality, anti-feedant effect or growth inhibition) at 200 ppm [1] | mortality at 50 ppm [2] | percent control (mortality, anti-feedant effect or growth inhibition) at 200 ppm [3] | percent control (mortality or growth inhibition) at 200 ppm [4] | mortality at 12 ppm [5] | percent control (mortality or growth inhibition) at 200 ppm [6] | mortality at 500 ppm [7]

CC(NC(=O)c1cc(C(F)(F)F)cc(C2(C#N)CC2)c1)c1nccnc1-c1ccccn1 (centres unmarked) [P22, 3-(1-cyanocyclopropyl)-N-[1-[3-(2-pyridyl)pyrazin-2-yl]ethyl]-5-(trifluoromethyl) benzamide]
≥ 80%: percent control (mortality, anti-feedant effect or growth inhibition) at 200 ppm [1] | mortality at 50 ppm [2] | percent control (mortality, anti-feedant effect or growth inhibition) at 200 ppm [3] | percent control (mortality or growth inhibition) at 200 ppm [4] | percent control (mortality or growth inhibition) at 200 ppm [6] | mortality at 500 ppm [7]

CC(NC(=O)c1cc(C(F)(F)F)cc(C2(C#N)CC2)c1)c1nccnc1-c1ccc(F)cn1 (centres unmarked) [P23, 3-(1-cyanocyclopropyl)-N-[1-[3-(5-fluoro-2-pyridyl)pyrazin-2-yl]ethyl]-5-(trifluoromethyl) benzamide]
≥ 80%: mortality at 50 ppm [2] | percent control (mortality or growth inhibition) at 200 ppm [4] | mortality at 500 ppm [7]

CC(NC(=O)c1cc(C(F)(F)F)cc(C2(C#N)CC2)c1)c1nccnc1-c1ncccn1 (centres unmarked) [P25, 3-(1-cyanocyclopropyl)-N-[1-(3-pyrimidin-2-ylpyrazin-2-yl)ethyl]-5-(trifluoromethyl)benzamide]
≥ 80%: percent control (mortality, anti-feedant effect or growth inhibition) at 200 ppm [1] | percent control (mortality or growth inhibition) at 200 ppm [8] | mortality at 50 ppm [2] | percent control (mortality, anti-feedant effect or growth inhibition) at 200 ppm [3] | percent control (mortality or growth inhibition) at 200 ppm [4] | mortality at 12 ppm [5] | percent control (mortality or growth inhibition) at 200 ppm [6] | mortality at 24 ppm [9] | mortality at 500 ppm [7]

CC(NC(=O)c1cc(C(F)(F)F)nc(C2(C#N)CC2)c1)c1nccnc1-c1ccccn1 (centres unmarked) [P26, 2-(1-cyanocyclopropyl)-N-[1-[3-(2-pyridyl)pyrazin-2-yl]ethyl]-6-(trifluoromethyl)pyridine-4-carboxamide]
≥ 80%: percent control (mortality, anti-feedant effect or growth inhibition) at 200 ppm [1] | mortality at 50 ppm [2] | percent control (mortality, anti-feedant effect or growth inhibition) at 200 ppm [3] | percent control (mortality or growth inhibition) at 200 ppm [4] | percent control (mortality or growth inhibition) at 200 ppm [6] | mortality at 500 ppm [7]

CC(NC(=O)c1cc(C(F)(F)F)cc(C(C)(C)C#N)c1)c1nccnc1-c1ncccn1 (centres unmarked) [P50, 3-(1-cyano-1-methyl-ethyl)-N-[1-(3-pyrimidin-2-ylpyrazin-2-yl)ethyl]-5-(trifluoromethyl)benzamide]
≥ 80%: percent control (mortality, anti-feedant effect or growth inhibition) at 200 ppm [1] | percent control (mortality or growth inhibition) at 200 ppm [8] | percent control (mortality, anti-feedant effect or growth inhibition) at 200 ppm [3] | percent control (mortality or growth inhibition) at 200 ppm [4] | mortality at 12 ppm [5] | percent control (mortality or growth inhibition) at 200 ppm [6] | mortality at 24 ppm [9]

CC(NC(=O)c1cc(C(F)(F)F)nc(C2(C#N)CC2)c1)c1nccnc1-c1ncc(Br)cn1 (centres unmarked) [P55, N-[1-[3-(5-bromopyrimidin-2-yl)pyrazin-2-yl]ethyl]-2-(1-cyanocyclopropyl)-6-(trifluoromethyl)pyridine-4-carboxamide]
≥ 80%: percent control (mortality, anti-feedant effect or growth inhibition) at 200 ppm [1] | percent control (mortality or growth inhibition) at 200 ppm [8] | percent control (mortality, anti-feedant effect or growth inhibition) at 200 ppm [3] | percent control (mortality or growth inhibition) at 200 ppm [4] | mortality at 12 ppm [5] | percent control (mortality or growth inhibition) at 200 ppm [6]

Reference: patent US12527325B2, “Pesticidally active diazine-amide compounds” (SYNGENTA CROP PROTECTION AG, priority 2019, dated 2026)
